Measurements reported in patent US20110038917A1, “THERAPEUTIC COMPOSITIONS AND METHODS FOR TREATING GRAM-NEGATIVE BACTERIAL INFECTIONS” (RQ Bioscience, Inc., priority 2007, published 2011).

System: Pseudomonas aeruginosa infection
Assay: Self-administered inhalation by a cystic fibrosis patient with Pseudomonas aeruginosa infection: patient-reported signs of infection
Format: in vivo, human
Settings: for initial response of asthma and coughing to the antibiotic regimen: ciprofloxacin 2×1000 mg, Zithromax 1×500 mg daily and TOBI 2×5mg given together; for severity of asthma, frequency of coughing and quantity of expectorated mucus after three months on the antibiotics: ciprofloxacin, Zithromax and TOBI given together
Source text: I. A cystic fibrosis patient described their asthma as increasingly severe and being present constantly during the day. They reported being more short-breathed than previously, often experiencing difficulty breathing after walking only 50 meters. They also reported an increasingly persistent cough, which escalated to almost every minute. They also described coughing up a “fluorescent light green” mucus. The patient further reported losing about 3.5 kg of weight.
After a lab test by their cystic fibrosis doctor, the patient was diagnosed with a Pseudomonas aeruginosa infection. They were prescribed the antibiotics ciprofloxacin (2×1000 mg), Zithromax® (azithromycin, 1×500 mg daily) and TOBI, an aerosolized form of tobramycin (2×5mg). […]
The patient reports that during the past 3 months they have resumed using the lactoferrin/OPC combination, as well as TOBI twice a day and Zithromax, and pulmozyme.

SMILES | initial response of asthma and coughing to the antibiotic regimen | severity of asthma, frequency of coughing and quantity of expectorated mucus after three months on the antibiotics
CC[C@H]1OC(=O)[C@H](C)[C@@H](O[C@H]2C[C@@](C)(OC)[C@@H](O)[C@H](C)O2)[C@H](C)[C@@H](O[C@@H]2O[C@H](C)C[C@H](N(C)C)[C@H]2O)[C@](C)(O)C[C@@H](C)CN(C)[C@H](C)[C@@H](O)[C@]1(C)O [Zithromax, azithromycin] | initial noticeable decrease in both the asthma and coughing | began increasing
O=C(O)c1cn(C2CC2)c2cc(N3CCNCC3)c(F)cc2c1=O [ciprofloxacin] | initial noticeable decrease in both the asthma and coughing | began increasing
